Laboratory results as given in US11649222B2, “Compounds” (UNIVERSITETET I OSLO, priority 2016, dated 2023).
Where a name gives a salt, the structure may show the parent alone. Read-outs that look alike come from different tables or passages of the source.

Tests used:
human hepG2 cells = assay: In vitro toxicity in human hepG2 cells (AlamarBlue viability); assay type: cell-based
Procedure: For viability assays, cells were seeded in white 96-well Nunclon plates at a density of 20,000 cells/well and left overnight to adhere before experiments were conducted. Zn chelators dissolved in DMSO were added to white 96-well plates containing 20000 HepG2 cells/well at concentrations ranging from 1 to 1×10^−6 mM (max DMSO concentration never exceeded 1%) and incubated for 24 hours at 37° C. After 24 hours, AlamarBlue® cell viability reagent (Thermo Fisher, Carlsbad, USA) was added (10% final concentration) and incubated for 4 hours at 37° C.

[1] = system: resistant gram-negative MBL-based bacteria; assay: MICx: adjuvant concentration giving carbapenem MIC ≤ 2 mg/L; assay type: cell-based
Procedure: • Plate bacterial strain(s) on appropriate media: • Gram-negative bacteria with ESBLs or carbapenemases: green agar plates with 100 mg/L ampicillin • Gram-negative bacteria without β-lactamases: green agar plates • Gram-positive bacteria (Staphylococci and Enterococci): blood agar plates • Incubate o.n. at 37° C. […] (Should be used within 15 min of preparation). • Dilute the 0.5 McFarland suspension 1:100 into MH broth. […] Plate 10 μl of the dilution on MH agar plates (×2). Incubate o.n. at 37° C., count the colonies and calculate the final CFU/ml inoculum in the plate by multiplying the average number of colonies with 10000 and divide by 2. The final inoculum should be between 3-7×10^5 CFU/ml. • Add 50 μl of the prepared bacterial suspension to each well in the microtiter plate except negative growth control. Preparation of Compounds/Antibiotics • Calculate the desired concentration-range and volume of the compounds/antibiotics in the assay. […] Dilute the stock solution in MH broth. Make subsequent 2-fold dilutions in MH broth of the desired concentrations if a concentration range is to be tested (remember the extra dilution factor in the assay plate). Always include extra volume for pipetting. Take into consideration stock solutions that are made in buffers that have an effect on bacterial growth (e.g. DMSO).

[2] = human hepG2 cells, 24 hours, AlamarBlue, 8 replicates, read-out: IC50
[3] = human hepG2 cells, read-out: IC50h
[4] = lowest concentration of compound X that results in a MIC value of ≤ 2 mg/L for carbapenem antibiotics

CN(C[C@H](O)[C@@H](O)[C@H](O)[C@H](O)CO)C(=O)Cc1ccc(-n2cc(CN(Cc3ccccn3)Cc3ccccn3)nn2)cc1 [Example 96, 2-(4-(4-((bis(pyridin-2-ylmethyl)amino)methyl)-1H-1,2,3-triazol-1-yl)phenyl)-N-methyl-N-((2S,3R,4R,5R)-2,3,4,5,6-pentahydroxyhexyl)acetamide]
IC50 (human hepG2 cells; [2]): > 1000 µM | IC50 (human hepG2 cells; [3]): ≥ 118 µM | MICx [1, 4]: 125 µM

O=C(Cc1ccc(-n2cc(CN(Cc3ccccn3)Cc3ccccn3)nn2)cc1)NC[C@H](O)CO [Example 104, (S)-2-(4-(4-((bis(pyridin-2-ylmethyl)amino)methyl)-1H-1,2,3-triazol-1-yl)phenyl)-N-(2,3-dihydroxypropyl)acetamide]
IC50 (human hepG2 cells; [2]): 224 µM

O=C(O)CN1CCN(CC(=O)O)CCN([C@H](CO)[C@H](O)CO)CCN(CC(=O)O)CC1 [Butrol, reference compound]
IC50 (human hepG2 cells; estimated values (footnote c), read-out: IC50h): 60 µM | MICx ([1]; estimated values (footnote c)): 15^c μM

COC(=O)c1ccc(CN(Cc2ccccc2)Cc2ccccn2)nc1 [Example 186, methyl 6-((benzyl(pyridin-2-ylmethyl)amino)methyl)nicotinate]
IC50 (human hepG2 cells; [2]): ~215 µM

OCc1ccc(CN(Cc2ccccn2)Cc2ccccn2)nc1 [Example 14, (6-((bis(pyridin-2-ylmethyl)amino)methyl)pyridin-3-yl) methanol]
IC50 (human hepG2 cells; [2]): 12.4 µM | IC50 (human hepG2 cells; [3]): 12.4 µM | MICx [1, 4]: 31 µM

O=C(NC[C@@H](O)CO)c1ccc(CN(Cc2ccccn2)Cc2ccccn2)nc1 [Example 97, (R)-6-((bis(pyridin-2-ylmethyl)amino)methyl)-N-(2,3-dihydroxypropyl)nicotinamide]
IC50 (human hepG2 cells; [2]): 131 µM

O=C(NCCc1ccc(-n2cc(CN(Cc3ccccn3)Cc3ccccn3)nn2)cc1)[C@H]1O[C@H](O)[C@H](O)[C@@H](O)[C@H]1O [Example 101, (2S,3R,4S,5R,6S)—N-(4-(4-((Bis(pyridin-2-ylmethyl)amino)methyl)-1H-1,2,3-triazol-1-yl)phenethyl)-3,4,5,6-tetrahydroxytetrahydro-2H-pyran-2-carboxamide]
IC50 (human hepG2 cells; [2]): ~220 µM

O=C(NC(CO)(CO)CO)c1ccc(CN(Cc2ccccn2)Cc2ccccn2)nc1 [Example 103, 6-((bis(pyridin-2-ylmethyl)amino)methyl)-N-(1,3-dihydroxy-2-(hydroxymethyl)propan-2-yl)nicotinamide]
IC50 (human hepG2 cells; [2]): 67.6 µM | IC50 (human hepG2 cells; [3]): 67.6 µM | MICx [1, 4]: 31 µM

O=C(O)CNC(=O)CNC(=O)c1ccc(CN(Cc2ccccn2)Cc2ccccn2)nc1 [Example 109]
IC50 (human hepG2 cells; [2]): 128 µM

O=C(CNCCc1ccc(NC(=O)CN(CCN(Cc2ccccn2)Cc2ccccn2)Cc2ccccn2)cc1)NCC(O)CO (stereo not shown) [Example 108]
IC50 (human hepG2 cells; [2]): > 1000 µM

COC(=O)c1ccc(CN(Cc2ccccn2)Cc2ccccn2)nc1 [Example 12, methyl 6-((bis(pyridin-2-ylmethyl)amino)methyl)nicotinate]
IC50 (human hepG2 cells; Homo sapiens, HepG2, 24 h): 16.5 µM | IC50 (human hepG2 cells; Homo sapiens, HepG2, read-out: IC50h): 16.4 µM | MICx [1]: 31 µM

c1ccc(CN(Cc2ccccn2)Cc2ccccn2)nc1 [TPA, N,N,N-tris(2-pyridylmethyl) amine, reference compound]
EC50 (human hepG2 cells; Homo sapiens, HepG2): 10 µM

NCc1ccc(CN(Cc2ccccn2)Cc2ccccn2)nc1 [Example 147, 1-(5-(aminomethyl)pyridin-2-yl)-N,N-bis(pyridin-2-ylmethyl) methanamine hydrochloride]
IC50 (human hepG2 cells; Homo sapiens, HepG2, 24 h): ~10 µM

O=C(O)C[C@@H]1CC[C@H](NC(=O)c2ccc(CN(Cc3ccccn3)Cc3ccccn3)nc2)B(O)O1 [Example 163, 2-((3R,6S)-3-(6-((Bis(pyridin-2-ylmethyl)amino)methyl)nicotinamido)-2-hydroxy-1,2-oxaborinan-6-yl)acetic acid]
IC50 (human hepG2 cells; Homo sapiens, HepG2, estimated values (footnote c), read-out: IC50h): 100 µM

O=C(CN(CCN(Cc1ccccn1)Cc1ccccn1)Cc1ccccn1)Nc1ccc(CC(=O)NC(CO)(CO)CO)cc1 [Example 24, 2-((2-(bis(pyridin-2-ylmethyl)amino)ethyl)(pyridin-2-ylmethyl)amino)-N-(4-(2-(1,3-dihydroxy-2-(hydroxymethyl)propan-2-ylamino)-2-oxoethyl)phenyl)acetamide]
IC50 (human hepG2 cells; [3]): 60 µM | MICx [1, 4]: 31 µM
